Where “and” joins values, the source holds several entries; their conditions need not be identical. Equal entries are not always repeated.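 Step 1: Grow cells in 96-well plates. Step 2: Expose to compound for 48 hours at 5 concentrations. Step 3: Interpolate endpoints linearly; if unreached, use highest concentration. GI50 marks 50% less growth. At the TGI there is no net growth.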
Tests used:
Experiment in all cases: inhibition of tumour cell growth, NCI panel, 48 h
A549 NSCLC = test system: A549 NSCLC
OVCAR-8 ovarian = test system: OVCAR-8 ovarian
SK-MEL-2 melanoma = test system: SK-MEL-2 melanoma
IGROV1 ovarian = test system: IGROV1 ovarian
SK-OV-3 ovarian = test system: SK-OV-3 ovarian
DU-145 prostate = test system: DU-145 prostate
SNB-75 CNS = test system: SNB-75 CNS
HOP-92 NSCLC = test system: HOP-92 NSCLC
SW-620 colon = test system: SW-620 colon
SN12C renal = test system: SN12C renal

SMILES | GI50 (A549 NSCLC) | TGI (A549 NSCLC) | GI50 (OVCAR-8 ovarian) | TGI (OVCAR-8 ovarian) | GI50 (SK-MEL-2 melanoma) | TGI (SK-MEL-2 melanoma) | GI50 (IGROV1 ovarian) | TGI (IGROV1 ovarian) | GI50 (SK-OV-3 ovarian) | TGI (SK-OV-3 ovarian) | GI50 (DU-145 prostate) | TGI (DU-145 prostate) | GI50 (SNB-75 CNS) | TGI (SNB-75 CNS) | GI50 (HOP-92 NSCLC) | TGI (HOP-92 NSCLC) | GI50 (SW-620 colon) | TGI (SW-620 colon) | GI50 (SN12C renal) | TGI (SN12C renal)
COC(=O)c1ccc2c(c1)nc(-c1ccc(Cl)cc1)n2-c1cc(C(C)(C)C)[nH]n1 | 4.03 µM | 94.5 µM | 7.33 µM | 58.2 µM | 3.89 µM | 18.1 µM | 3.64 µM | 25 µM | 3.71 µM | 31 µM | 3.69 µM | 25.1 µM | 2.14 µM | 12.6 µM | 1.15 µM | 8.02 µM | 3.24 µM | > 100 µM | 4.34 µM | 27.7 µM
N#Cc1c2ccccc2c2nnc3cc(Cl)c(Cl)cc3n12 | 47.7 µM | > 100 µM | 40 µM | > 100 µM | 60.7 µM | > 100 µM | 44.5 µM | > 100 µM | > 100 µM | > 100 µM | 32.4 µM | > 100 µM | 71.7 µM | > 100 µM | 42 µM | > 100 µM | > 100 µM | > 100 µM | 23 µM | 61.6 µM
C=C1C(=O)O[C@H]2[C@H]1CC/C(COC(=O)CCC(=O)OC/C1=C/CC[C@@]3(C)O[C@H]3[C@H]3OC(=O)C(=C)[C@@H]3CC1)=C\CC[C@@]1(C)O[C@@H]21 | 13.7 µM | 30 µM | 2.75 µM | 10.4 µM | 2.89 µM | 9.38 µM | 2.26 µM | 8.83 µM | 23.1 µM | 84.8 µM | 1.71 µM | 3.53 µM | 15.1 µM | 45.7 µM | 0.71 µM | 2.38 µM | 0.602 µM | 2.1 µM | 2.04 µM | 6.63 µM
O=C(CC1C(=O)Nc2ccccc2S1=O)Nc1cccc(Cl)c1 (configuration not stated) |  | > 100 µM |  | > 71.9 µM |  | > 100 µM |  | > 67.1 µM |  | > 100 µM |  | > 100 µM |  | 64.1 µM |  | 53.8 µM |  | > 100 µM |  | > 100 µM
Nc1nc(Cl)nc2c1ncn2C1O[C@H](CO)[C@@H](O)[C@@H]1F (some centres not stated) | 0.379 µM | > 100 µM | 0.0423 µM | > 100 µM | > 100 µM | > 100 µM | > 73.5 µM | > 100 µM | 0.761 µM | > 100 µM | 0.332 µM | > 32.4 µM | 2.25 µM | > 100 µM | 0.0653 µM | 4.8 µM | 0.888 µM | > 100 µM | 0.0668 µM | > 100 µM
C=C1C(=O)O[C@H]2[C@H]1CC/C(Cn1cc(CCC)nn1)=C\CC[C@@]1(C)O[C@@H]21 | 22.3 µM | 44.3 µM | 13.5 µM | 29.8 µM | 16.3 µM | 34.5 µM | 4.63 µM | 20.2 µM | 26 µM | 68.5 µM | 4.32 µM | 16 µM | 18.5 µM | 69.4 µM | 2.95 µM | 7.13 µM | 4.23 µM | 14.4 µM | 12.1 µM | 29.4 µM
CC(C)(C)c1ccc(-c2nnc(SCc3ccc(Cl)cc3)n2-c2cccc(C(F)(F)F)c2)cc1 |  | > 100 µM |  | > 100 µM |  | > 69.5 µM |  | > 100 µM |  | > 100 µM |  | > 100 µM |  | > 94.1 µM |  | > 100 µM |  | > 100 µM |  | 14 µM
CC(C)[C@]12O[C@H]1[C@@H]1O[C@]13[C@]1(O[C@H]1C[C@H]1c4c(C(=O)c5ccccc5)oc(OC(=O)c5ccccc5)c4CC[C@@]13C)[C@@H]2O | 0.059 µM | > 62.4 µM | 0.0494 µM | > 50.2 µM | 0.0252 µM | 0.0781 µM | 0.028 µM | 9.74 µM | 0.0351 µM | > 100 µM | 0.0204 µM | 15.3 µM | 0.0224 µM | 0.17 µM | 0.0649 µM |  | 0.0179 µM | 3.89 µM | 0.0249 µM | 52.2 µM
COc1ccccc1Nc1nc(-c2cc3cccc(C(F)(F)F)c3oc2=O)cs1 | 0.261 µM | > 100 µM | 0.301 µM | > 100 µM | 0.262 µM | > 100 µM | 0.257 µM | > 53 µM | 0.237 µM | > 93.9 µM | 0.263 µM |  | 0.0305 µM | 16.7 µM | 0.112 µM | 33.1 µM | 0.144 µM | > 100 µM | 1.04 µM | > 100 µM
Cn1cccc1-c1cc(-c2ccc(Br)cc2)nc(N)c1C#N | > 100 µM | > 100 µM | > 100 µM | > 100 µM | > 100 µM | > 100 µM | 70 µM | > 100 µM | > 100 µM | > 100 µM | > 100 µM | > 100 µM | 22.2 µM | 84.3 µM | 47.8 µM | > 100 µM | > 100 µM | > 100 µM | > 100 µM | > 100 µM
O=[N+]([O-])c1ccc2[nH]cc(-c3c4ccccc4cc4[nH]c5ccc([N+](=O)[O-])cc5c34)c2c1 | 2.07 µM | 4.8 µM | 2.59 µM | 8.17 µM | 2.18 µM | 5.34 µM | 2.15 µM | 4.68 µM | 3.38 µM | 10.8 µM | 2.26 µM | 5.09 µM | 1.84 µM | 5.93 µM | 2.25 µM | 5.89 µM | 2.73 µM | 8.84 µM | 2.84 µM | 7.92 µM
O=C1c2cccnc2-c2nc(-c3ccc([N+](=O)[O-])cc3)cc3c2c1nc1ccccc13 | 2.58 µM | 8.3 µM | 1.5 µM | 6.76 µM | 3.3 µM | 26.5 µM | 7.09 µM | 26 µM | 11.4 µM | 39 µM | 2.21 µM | 4.88 µM | 4.43 µM | 12.1 µM | 24 µM | 83.6 µM | 3.21 µM | 15.6 µM | 11.3 µM | 25.7 µM
O=C(O)/C(Cl)=C(/Cl)C(=O)Nc1cccc(Cl)c1 |  | > 100 µM |  | 38.9 µM |  | 49.8 µM |  | 39 µM |  | 25.4 µM |  | > 100 µM |  | 40.1 µM |  | 30.8 µM |  | 32.1 µM |  | 36.9 µM
COc1cc(/C=C/C(=O)c2ccc(Nc3nc(Nc4ccc(F)cc4)nc(Nc4ccc(F)cc4)n3)cc2)cc(OC)c1OC | 8.27 µM | > 100 µM | 1.94 µM | > 100 µM | 3.99 µM | 33.2 µM | 3.59 µM | > 100 µM | 80.7 µM | > 100 µM | > 100 µM | > 100 µM | > 100 µM | > 100 µM | 2.3 µM | 42.6 µM | 7.28 µM | > 100 µM | 33.6 µM | > 100 µM
CN(C)CCn1cc(-c2ccc3c(Nc4ccc(CC(=O)Nc5cccc(F)c5)cc4)ncnc3c2)cn1 | 1.3 µM | 3.46 µM | 1.6 µM | 6.39 µM | > 10 µM | > 10 µM | 2.01 µM | 6.41 µM | > 10 µM | > 10 µM | 1.67 µM | 3.51 µM | 0.0472 µM | > 10 µM | 6.27 µM | > 10 µM | 1.05 µM | 2.91 µM | 1.53 µM | 3.64 µM
CCOC1NC(=O)Oc2ccccc21 (configuration not stated) |  | > 100 µM |  | > 100 µM |  | > 100 µM |  | > 100 µM |  | > 100 µM |  | > 100 µM |  | > 100 µM |  | > 100 µM |  | > 100 µM |  | > 100 µM
COc1ccc(-n2c(N)c(C(=O)NCCN3CCOCC3)c3nc4ccccc4nc32)cc1OC | 6.08 µM | > 100 µM | 6.94 µM | > 100 µM | 2.94 µM | 42.8 µM | 4.92 µM | 67.4 µM | 85.5 µM | > 100 µM | 9.81 µM | > 100 µM | 38.7 µM | > 100 µM | 20.3 µM | > 100 µM | 4.07 µM | > 100 µM | 5.29 µM | > 100 µM
O=C1/C(=C/c2ccc(O)cc2)CCC1CNc1ccc(Cl)cc1 (configuration not stated) |  | 21.6 µM |  | 7.1 µM |  | 28.7 µM |  | 15.1 µM |  | 20.9 µM |  | 26.2 µM |  | 29.7 µM |  | 28.4 µM |  | 3.03 µM |  | 9.25 µM
Cc1ccc(/C=C(\C#N)n2nnc3cc(F)c(F)cc32)cc1 | 2.28 µM | 7.3 µM | 2.26 µM | 6.93 µM | 2.26 µM | 7.97 µM | 3.43 µM | 32.1 µM | 4.49 µM | 33.7 µM | 3.32 µM | 15.6 µM | 2.45 µM | 84.5 µM | 2.37 µM | 8.32 µM | 0.891 µM | 11.2 µM | 2.72 µM | 7.41 µM
CNCCNc1nc2ccccc2c2c(=O)c3cccc(OC)c3sc12 | 1.2 µM | 2.78 µM | 1.15 µM | 2.8 µM | 1.78 µM | 3.62 µM | 1 µM | 2.44 µM | 1.65 µM | 3.84 µM | 1.49 µM | 2.95 µM | 1.1 µM | 2.33 µM | 1.13 µM | 3.77 µM | 0.575 µM | 2.11 µM | 1.08 µM | 2.53 µM
C[n+]1c2ccccc2c(NC2CCNCC2)c2[nH]c3ccccc3c21 | 0.0812 µM | 2.73 µM | 1.42 µM | 12.8 µM | 0.207 µM | 1.22 µM | 0.363 µM | 5.05 µM | 0.302 µM | 3 µM | 0.2 µM | 4.32 µM | 0.524 µM | 2.72 µM | 1.15 µM | 6.86 µM | 1.23 µM | 6.73 µM | 0.0324 µM | 0.314 µM
Cn1c(=O)c(F)c(Nc2ccc(I)cc2F)c2c(=O)n(C[C@@H](O)CO)cnc21 | 0.234 µM and 0.11 µM | 58.7 µM and > 4.08 µM | 7.91 µM | > 100 µM | < 0.01 µM and 0.00295 µM | < 0.0252 µM and 0.0277 µM | 0.106 µM and 0.0179 µM | 20.8 µM | 15.1 µM | > 68.8 µM |  | > 100 µM | 4.11 µM | 30.8 µM and > 2.29 µM | < 0.01 µM | 0.087 µM and 0.179 µM | < 0.01 µM and 0.00521 µM | > 64.1 µM | 3.91 µM and 0.487 µM | > 100 µM
